Several values for one entry are separate records, joined by “and”; a condition that tells them apart may be missing. Equal values may be shown once. Each block holds one compound with its values, some of them ahead of it.
Tests used:
[1] = target: T1, CYP17A1 (Homo sapiens, UniProt P05093); experiment: CYP17A1 17,20-lyase activity assay in NCI-H295R cells (tritiated water release); format: cell-based; conditions: 4 h, DMSO = 100, read-out: CYP17A1 Lyase activity, Mean (percentage of activity remaining relative to the control)
T1 construct: immortalised human adrenal cells expressing CYP17A1 and other steroidogenic enzymes; endogenous in cells; host or cells: NCI-H295R (human adrenal cells)
T1 sequence (P05093 1-508): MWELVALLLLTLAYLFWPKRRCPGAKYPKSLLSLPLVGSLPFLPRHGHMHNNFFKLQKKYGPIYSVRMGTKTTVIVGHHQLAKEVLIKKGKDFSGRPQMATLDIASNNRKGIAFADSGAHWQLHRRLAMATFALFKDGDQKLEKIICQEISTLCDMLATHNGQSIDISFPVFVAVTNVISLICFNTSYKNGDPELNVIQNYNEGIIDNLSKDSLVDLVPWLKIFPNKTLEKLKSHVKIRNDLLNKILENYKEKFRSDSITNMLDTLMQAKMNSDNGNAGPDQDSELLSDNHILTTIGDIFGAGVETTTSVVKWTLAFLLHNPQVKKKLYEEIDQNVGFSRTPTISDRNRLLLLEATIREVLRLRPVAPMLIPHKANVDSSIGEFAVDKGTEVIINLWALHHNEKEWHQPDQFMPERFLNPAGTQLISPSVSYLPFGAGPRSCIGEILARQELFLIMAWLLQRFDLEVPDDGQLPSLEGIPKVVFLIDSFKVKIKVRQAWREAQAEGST
Procedure: (§1) Human adrenal NCI-H295R cells are an established model for assay of CYP17A1 activities. The NCI-H295R cells were seeded in 12-well plates at 500 000 cells per well and incubated overnight. On the following day, 10 µM of test compounds were added to the wells with fresh medium and incubated for 4 h. Abiraterone was used as a reference, and DMSO was included as a control. For assessing CYP17A1 hydroxylase activity, cells were treated with [^14C]-Progesterone at 10 000 cpm/1 µM per well. Trilostane was added prior to the test compounds and substrate to inhibit 3β-hydroxysteroid dehydrogenase activity so that a clean assay of only CYP17A1 activity could be performed[20]^,[27]^,[28]. Radiolabeled steroids were extracted from the media using a mixture of ethyl acetate and isooctane (1:1 v/v) and separated by Thin Layer Chromatography (TLC) on silica gel-coated aluminium plates (Supelco® Analytics, Sigma-Aldrich Chemie GmbH, Taufkirchen, Germany). TLC spots were visualised on a phosphor screen and detected by autoradiography using a Typhoon™ FLA-7000 PhosphorImager (GE Healthcare, Uppsala, Sweden). Radioactivity was quantified with ImageQuant™ TL analysis software (GE Healthcare Europe GmbH, Freiburg, Germany), and enzyme activity was expressed as the percentage of radioactivity incorporated into the product relative to the total radioactivity. For CYP17A1 lyase activity, cells were exposed to 50 000 cpm/1 µM [21-^3H]-17α-hydroxypregnenolone per well under similar conditions. The tritiated water release assay was used to measure the conversion of 17OH-Pregnenolone to DHEA. Steroids in the media were precipitated using a 5% activated charcoal/0.5% dextran solution. Enzyme activity was evaluated based on the water-soluble tritiated by-product formed in equimolar amounts with DHEA, with radioactivity in the aqueous phase quantified by liquid scintillation counting (MicroBeta2® Plate Counter, PerkinElmer Inc., Waltham, MA, USA). Percent inhibition was calculated relative to control samples.

[2] = system: adrenal steroidogenesis in NCI-H295R cells; experiment: Steroid profiling by LC-MS in NCI-H295R cells; format: cell-based, human; conditions: compounds at 10 µM; for Androsterone, Mean / Testosterone, Mean / Progesterone, Mean / Androstendione, Mean / 17a-Hydroxyprogesterone, Mean / DHEA, Mean / 11-Deoxycortisol, Mean / 11-Deoxycorticosterone, Mean / Pregnenolone, Mean: 1 µM pregnenolone; for Androsterone, Mean / Cortisone, Mean / DHEA-S, Mean / Dihydrotestosterone, Mean: DMSO 0; for Testosterone, Mean: DMSO 0.4785; for Progesterone, Mean: DMSO 4.814; for Androstendione, Mean: DMSO 7.577; for 17a-Hydroxyprogesterone, Mean: DMSO 9.967; for DHEA, Mean: DMSO 15.119; for 11-Deoxycortisol, Mean: DMSO 26.594; for 11-Deoxycorticosterone, Mean: DMSO 28.1555; for Pregnenolone, Mean: DMSO 2043.56; for Cortisone, Mean / DHEA-S, Mean / Dihydrotestosterone, Mean: not detected within the experimental timeframe
Procedure: (§2) Steroid quantification was performed using Liquid Chromatography–Mass Spectrometry (LC-MS), following established protocols to study effect of compounds on adrenal steroidogenesis. Human adrenal NCI-H295R cells were seeded in 12-well plates at 500 000 cells per well and treated with fresh growth medium containing the test compounds for 4 h. Subsequently, 1 µM pregnenolone was added and incubated for an additional 4 h. Steroids were extracted from 500 µL aliquots of cell media, separated, and quantified according to the referenced methodology.

[3] = system: DU-145 cells; experiment: Scratch (wound healing) assay; format: cell-based, human; conditions: DU-145, 10 µM; for Wound area, Mean (area remaining open): 24 h, DMSO 170.5; for Effect on cell migration (in words): after 24 h
Procedure: Human prostate cancer DU-145 cells show strong cell proliferation and therefore, are an established model for assay of antiproliferative effects of test compounds. DU-145 cells were plated in 24-well plates at 50 000 cells per well and grown until they reached 85% confluence. To inhibit cell proliferation, cells were treated with 5 µg/mL mitomycin for 2 h. A wound was created using a 10 µL pipette tip. The cells were then exposed to drugs at a concentration of 10 µM, while control wells received DMSO. Wound closure was observed and photographed using an optical microscope after 24 h. Images were analysed using ImageJ software (version 1.54j).

[4] = target: T1, CYP17A1; experiment: CYP17A1 activity calculated as ratios of steroid products to substrates (LC-MS); format: cell-based; conditions: normalised to DMSO-treated cells (100%), NCI-H295R
Procedure: as §2
To provide deeper insights into CYP17A1 inhibition, the enzyme activity was calculated using ratios of steroid products to substrates, focusing on dual activities of CYP17A1 (Figure 4(B)).

[5] = target: T1, CYP17A1; experiment: CYP17A1 17,20-lyase activity assay in NCI-H295R cells (tritiated water release); format: cell-based; conditions: dose-response, read-out: IC50, inhibition of 17,20-lyase activity
[6] = target: T1, CYP17A1; experiment: CYP17A1 17α-hydroxylase activity assay in NCI-H295R cells ([14C]-progesterone, TLC); format: cell-based; conditions: 4 h, DMSO = 100, read-out: CYP17A1 Hydroxylase activity, Mean (percentage of activity remaining relative to the control)
Procedure: as §1

[7] = system: LNCaP cells; experiment: Alamar blue (resazurin) cell viability, LNCaP; format: cell-based, human; conditions: 10 µM; for Effect on LNCaP cell viability (in words): 48 h
Procedure: (§3) LNCaP and RWPE-1 cells were plated in 96-well plates at 10 000 cells per well and incubated overnight at 37 °C with 5% CO2. VCaP cells were plated at 12 000 cells per well under the same conditions. After 24 h, the medium was replaced with fresh medium containing the compounds or abiraterone at a final concentration of 10 µM. Cells were incubated for an additional 24 and 48 h. Cell viability was measured using the Alamar Blue assay. Post-incubation, 0.05 mg/mL Alamar Blue solution in phosphate-buffered saline (PBS) was added to each well. The plates were incubated in the dark at 37 °C for 4 h, and fluorescence was measured at an excitation wavelength of 550 nm and an emission wavelength of 590 nm. Cell viability was calculated relative to control sample treated with DMSO. All experiments were conducted in triplicate.

[8] = system: VCaP cells; experiment: Alamar blue (resazurin) cell viability, VCaP; format: cell-based, human; conditions: Homo sapiens, VCaP, 24 h
Procedure: as §3

- remaining activity at 10 µM [1]: 93.7%
- remaining activity at 10 µM [6]: 67%
Structure (SMILES): N#Cc1c(-c2ccccc2)cc(-c2ccccc2)nc1N [Compound 2, 2-Amino-4,6-diphenylnicotinonitrile]

- remaining activity at 10 µM [1]: 94.7%
- remaining activity at 10 µM [6]: 84%
Structure (SMILES): N#Cc1c(-c2ccccc2)cc(-c2cccnc2)nc1N [Compound 3, 6-Amino-4-phenyl-[2,3′-bipyridine]-5-carbonitrile]

- remaining activity at 10 µM [1]: 68.5%
- remaining activity at 10 µM [6]: 71%
Structure (SMILES): N#Cc1c(-c2cccnc2)cc(-c2ccccc2)nc1N [Compound 4, 2′-Amino-6′-phenyl-[3,4′-bipyridine]-3′-carbonitrile]

- remaining activity at 10 µM [1]: 113%
- remaining activity at 10 µM [6]: 96%
Structure (SMILES): N#Cc1c(-c2cccnc2)cc(-c2cccnc2)c(C#N)c1N [Compound 7, 2-Amino-4,6-di(pyridin-3-yl)isophthalonitrile]

- remaining activity at 10 µM [1]: 84.8%
- remaining activity at 10 µM [6]: 103%
Structure (SMILES): N#Cc1c(-c2ccncc2)cc(-c2ccncc2)c(C#N)c1N [Compound 8, 2-Amino-4,6-di(pyridin-4-yl)isophthalonitrile]

- remaining activity at 10 µM [1]: 66.8%
- remaining activity at 10 µM [6]: 63%
Structure (SMILES): N#Cc1c(-c2ccncc2)cc(-c2cccnc2)c(C#N)c1N [Compound 9, 2-Amino-4-(pyridin-3-yl)-6-(pyridin-4-yl)isophthalonitrile]

- remaining activity at 10 µM [1]: 93.5%
- remaining activity at 10 µM [6]: 76%
Structure (SMILES): c1cncc(-c2ccc(-c3ccc4[nH]ccc4c3)cc2)c1 [Compound 13, 5-(4-(Pyridin-3-yl)phenyl)-1H-indole]

The next lines start with the compound.

Structure (SMILES): CCCn1nnc2cc(-c3cc(-c4ccncc4)c(C#N)c(N)n3)ccc21 [Compound 1, 2-Amino-6–(1-propyl-1H-benzo[d][1,2,3]triazol-5-yl)-[4,4′-bipyridine]-3-carbonitrile]
- remaining activity at 10 µM [1]: 46.3%
- Androsterone, Mean [2]: 0 nmol/L
- Testosterone, Mean [2]: 0.4455 nmol/L
- Progesterone, Mean [2]: 27.8235 nmol/L
- Androstendione, Mean [2]: 1.564 nmol/L
- 17a-Hydroxyprogesterone, Mean [2]: 0.977 nmol/L
- DHEA, Mean [2]: 1.1015 nmol/L
- 11-Deoxycortisol, Mean [2]: 5.22 nmol/L
- 11-Deoxycorticosterone, Mean [2]: 41.58 nmol/L and 41.577 nmol/L
- Pregnenolone, Mean [2]: 2228.179 nmol/L
- Cortisone, Mean [2]: 0 nmol/L
- DHEA-S, Mean [2]: 0 nmol/L
- Dihydrotestosterone, Mean [2]: 0 nmol/L
- Wound area, Mean (area remaining open) [3]: 731.5 Pixels^2
- Effect on cell migration (in words) [3]: less pronounced effect comparable to that exerted by abiraterone
- 17α-Hydroxylase activity (ratios of steroid products to substrates) [4]: 1.8%
- Combined 17α-hydroxylase and 17,20-lyase activity (ratios of steroid products to substrates) [4]: 6.6%
- IC50 [5]: 10 nM
- remaining activity at 10 µM [6]: 45%

Structure (SMILES): N#Cc1c(-c2ccccc2)cc(-c2ccncc2)c(C#N)c1N [Compound 6, 3-Amino-5-(pyridin-4-yl)-[1,1′-biphenyl]-2,4-dicarbonitrile]
- remaining activity at 10 µM [1]: 57.4%
- Cytotoxic effect on LNCaP cells (in words) ([7]; 24 and 48 h): marked reduction in viability
- remaining activity at 10 µM [6]: 53%
- viability at 10 µM [8]: < 50%

Structure (SMILES): CCCn1nnc2cc(-c3cc(-c4ccncc4)c(C#N)c(N)c3C#N)ccc21 [Compound 10, 2-Amino-4–(1-propyl-1H-benzo[d][1,2,3]triazol-5-yl)-6-(pyridin-4-yl)isophthalonitrile]
- remaining activity at 10 µM [1]: 58.2%
- remaining activity at 10 µM [6]: 32%

Structure (SMILES): c1cc(-c2ccncc2)cc(-c2ccc3[nH]ccc3c2)c1 [Compound 14, 5-(3-(Pyridin-4-yl)phenyl)-1H-indole]
- remaining activity at 10 µM [1]: 23.9%
- Androsterone, Mean [2]: 0.61 nmol/L
- Testosterone, Mean [2]: 0.4105 nmol/L
- Progesterone, Mean [2]: 51.7765 nmol/L
- Androstendione, Mean [2]: 1.359 nmol/L
- 17a-Hydroxyprogesterone, Mean [2]: 1.6245 nmol/L
- DHEA, Mean [2]: 0.6075 nmol/L
- 11-Deoxycortisol, Mean [2]: 3.75 nmol/L and 3.7485 nmol/L
- 11-Deoxycorticosterone, Mean [2]: 3.518 nmol/L
- Pregnenolone, Mean [2]: 2377.463 nmol/L
- Cortisone, Mean [2]: 0 nmol/L
- DHEA-S, Mean [2]: 0 nmol/L
- Dihydrotestosterone, Mean [2]: 0 nmol/L
- Wound area, Mean (area remaining open) [3]: 7074 Pixels^2
- Effect on cell migration (in words) [3]: significant inhibition of cell migration
- 17α-Hydroxylase activity (ratios of steroid products to substrates) [4]: 1.5%
- IC50 [5]: 26 nM
- Effect on LNCaP cell viability (in words) [7]: strong effect
- remaining activity at 10 µM [6]: 35%

Structure (SMILES): c1cc(-c2ccc(-c3ccc4[nH]ccc4c3)cc2)ccn1 [Compound 15, 5-(4-(Pyridin-4-yl)phenyl)-1H-indole]
- remaining activity at 10 µM [1]: 57.3%
- Effect on LNCaP cell viability (in words) [7]: strong effect
- remaining activity at 10 µM [6]: 87%

From publication PMC11834790, “Pyridine indole hybrids as novel potent CYP17A1 inhibitors” (Journal of Enzyme Inhibition and Medicinal Chemistry, 2025)
